Results: PMC9116245, “New 1,2,3-triazole linked ciprofloxacin-chalcones induce DNA damage by inhibiting human topoisomerase I& II and tubulin polymerization” (Journal of Enzyme Inhibition and Medicinal Chemistry, 2022)

What was measured:
Format in all cases: cell-based
SK-MEL-28 = assay: NCI one-dose screen; details: Homo sapiens; SK-MEL-28, 10 µM; read-out: Growth Percent
Experimental: (§1) For screening of anticancer properties, all the developed compounds were chosen by the (NCI) for in-vitro antitumor evaluation. The assay was carried out using 59 human cancer cell lines obtained from nine tumour subpanels (breast, ovarian, melanoma, leukaemia, renal, CNS, lung, prostate, and colon cancer cell lines). Compounds were assessed at a 10 µM concentration. […] Also, hybrids 4a, 4b, 4e, 4i and 4j produced significant anti-proliferative effect in several cancer cells, particularly in leukaemia (RPMI-8226) and colon (HCT116) cells with growth percent of 47.87, −14.59, −24.56, −24.42, −15.84, −9.74, −53.36, −10.26, −31.29, and −39.51%, respectively.
(§2) The method description for NCI anticancer screening is provided in detail in the standard NCI-60 testing protocol.

MALME-3M = assay: NCI one-dose screen; details: Homo sapiens, read-out: Growth Percent
Experimental: as §1, §2

OVCAR-5 = assay: NCI one-dose screen; details: Homo sapiens; OVCAR-5, 10 µM; read-out: Growth Percent
Experimental: as §1, §2

U251 = assay: NCI one-dose screen; details: Homo sapiens, U-251; U251, 10 µM; read-out: Growth Percent
Experimental: as §1, §2

NCI/ADR-RES = assay: NCI one-dose screen; details: Homo sapiens, read-out: Growth Percent
Experimental: as §1, §2

SNB-75 = assay: NCI one-dose screen; details: Homo sapiens; SNB-75, 10 µM; read-out: Growth Percent
Experimental: as §1, §2

SR = assay: NCI one-dose screen; details: Homo sapiens, read-out: Growth Percent
Experimental: as §1, §2

SW-620 = assay: NCI one-dose screen; details: Homo sapiens; SW-620, 10 µM; read-out: Growth Percent
Experimental: as §1, §2

MCF7 = assay: NCI one-dose screen; details: Homo sapiens; MCF7, 10 µM; read-out: Growth Percent
Experimental: as §1, §2

A549/ATCC = assay: NCI one-dose screen; details: Homo sapiens, read-out: Growth Percent
Experimental: as §1, §2

IGROV1 = assay: NCI one-dose screen; details: Homo sapiens, IGROV-1; IGROV1, 10 µM; read-out: Growth Percent
Experimental: as §1, §2

NCI-H226 = assay: NCI one-dose screen; details: Homo sapiens; NCI-H226, 10 µM; read-out: Growth Percent
Experimental: as §1, §2

MDA-MB-468 = assay: NCI one-dose screen; details: Homo sapiens; MDA-MB-468, 10 µM; read-out: Growth Percent
Experimental: as §1, §2

T-47D = assay: NCI one-dose screen; details: Homo sapiens, T47D, read-out: Growth Percent
Experimental: as §1, §2

HCC-2998 = assay: NCI one-dose screen; details: Homo sapiens; HCC-2998, 10 µM; read-out: Growth Percent
Experimental: as §1, §2

HOP-92 = assay: NCI one-dose screen; details: Homo sapiens; HOP-92, 10 µM; read-out: Growth Percent
Experimental: as §1, §2

RXF 393 = assay: NCI one-dose screen; details: Homo sapiens; RXF 393, 10 µM; read-out: Growth Percent
Experimental: as §1, §2

OVCAR-8 = assay: NCI one-dose screen; details: Homo sapiens; OVCAR-8, 10 µM; read-out: Growth Percent
Experimental: as §1, §2

ACHN = assay: NCI one-dose screen; details: Homo sapiens, read-out: Growth Percent
Experimental: as §1, §2

786-0 = assay: NCI one-dose screen; details: Homo sapiens; 786-0, 10 µM; read-out: Growth Percent
Experimental: as §1, §2

HOP-62 = assay: NCI one-dose screen; details: Homo sapiens; HOP-62, 10 µM; read-out: Growth Percent
Experimental: as §1, §2

HCT-15 = assay: NCI one-dose screen; details: Homo sapiens; HCT-15, 10 µM; read-out: Growth Percent
Experimental: as §1, §2

UACC-257 = assay: NCI one-dose screen; details: Homo sapiens; UACC-257, 10 µM; read-out: Growth Percent
Experimental: as §1, §2

MDA-MB-435 = assay: NCI one-dose screen; details: Homo sapiens; MDA-MB-435, 10 µM; read-out: Growth Percent
Experimental: as §1, §2

PC-3 = assay: NCI one-dose screen; details: Homo sapiens; PC-3, 10 µM; read-out: Growth Percent
Experimental: as §1, §2

NCI-H522 = assay: NCI one-dose screen; details: Homo sapiens; NCI-H522, 10 µM; read-out: Growth Percent
Experimental: as §1, §2

HS 578T = assay: NCI one-dose screen; details: Homo sapiens, read-out: Growth Percent
Experimental: as §1, §2

SK-MEL-2 = assay: NCI one-dose screen; details: Homo sapiens; SK-MEL-2, 10 µM; read-out: Growth Percent
Experimental: as §1, §2

LOX IMVI = assay: NCI one-dose screen; details: Homo sapiens, read-out: Growth Percent
Experimental: as §1, §2

OVCAR-3 = assay: NCI one-dose screen; details: Homo sapiens; OVCAR-3, 10 µM; read-out: Growth Percent
Experimental: as §1, §2

UACC-62 = assay: NCI one-dose screen; details: Homo sapiens; UACC-62, 10 µM; read-out: Growth Percent
Experimental: as §1, §2

SF-268 = assay: NCI one-dose screen; details: Homo sapiens; SF-268, 10 µM; read-out: Growth Percent
Experimental: as §1, §2

BT-549 = assay: NCI one-dose screen; details: Homo sapiens; BT-549, 10 µM; read-out: Growth Percent
Experimental: as §1, §2

HCT116 = assay: MTT assay; details: Homo sapiens, HCT-116, 24 h incubation
Experimental: (§3) The proliferation of colorectal cancer cells (HCT116, HT29 and Caco-2) was assessed using MTT assay as previously reported. Cells were treated with increasing concentrations of 1, 5, 10, 20, 40, 80 or 100 µM of CP hybrids 4a-j, doxorubicin, or DMSO. See Supplementary Appendix A.

Caco-2 = assay: MTT assay; details: Homo sapiens; Caco-2, MTT assay, 24 h incubation
Experimental: as §3

HT-29 = assay: MTT assay; details: Homo sapiens; HT-29, MTT assay, 24 h incubation
Experimental: as §3

Row | Compound | activity at 10 µM (SK-MEL-28) [%] | activity at 10 µM (MALME-3M) [%] | activity at 10 µM (OVCAR-5) [%] | activity at 10 µM (U251) [%] | activity at 10 µM (NCI/ADR-RES) [%] | activity at 10 µM (SNB-75) [%] | activity at 10 µM (SR) [%] | activity at 10 µM (SW-620) [%] | activity at 10 µM (MCF7) [%] | activity at 10 µM (A549/ATCC) [%] | activity at 10 µM (IGROV1) [%] | activity at 10 µM (NCI-H226) [%] | activity at 10 µM (MDA-MB-468) [%] | activity at 10 µM (T-47D) [%] | activity at 10 µM (HCC-2998) [%] | activity at 10 µM (HOP-92) [%] | activity at 10 µM (RXF 393) [%] | activity at 10 µM (OVCAR-8) [%] | activity at 10 µM (786-0) [%] | activity at 10 µM (HOP-62) [%] | also measured
1 | O=C(/C=C/c1ccccc1)c1ccc(-n2cc(CN3CCN(c4cc5c(cc4F)c(=O)c(C(=O)O)cn5C4CC4)CC3)nn2)cc1 [Compound 4a, (E) 7-(4-((1–(4-Cinnamoylphenyl)-1H-1,2,3-triazol-4-yl)methyl)piperazin-1-yl)-1-cyclopropyl-6-fluoro-4-oxo-1,4-dihydroquinoline-3-carboxylic acid] | 99.3 | 94.9 | 103 | 98.4 | 87.9 | 92.7 | 99.6 | 90 | 72.9 | 89.8 | 75.3 | 69.6 | 72.5 | 96.4 | 86 | 79.9 | 72 | 95.1 | 87.9 | 78.7 | activity at 10 µM (ACHN): 96.7%; activity at 10 µM (HCT-15): 93.8%; activity at 10 µM (UACC-257): 96.7%; activity at 10 µM (MDA-MB-435): 96.3%; activity at 10 µM (PC-3): 83.9%; activity at 10 µM (NCI-H522): 89.2%; activity at 10 µM (HS 578T): 80.6%; activity at 10 µM (SK-MEL-2): 96.4%; activity at 10 µM (LOX IMVI): 55.4%; activity at 10 µM (OVCAR-3): 90.4%; activity at 10 µM (UACC-62): 90.5%; activity at 10 µM (SF-268): 85.3%; activity at 10 µM (BT-549): 102%; IC50 (HCT116): 3.57 ± 0.59 µM; IC50 (Caco-2): 8.39 ± 2.46 µM; IC50 (HT-29): 22.4 ± 3.25 µM
2 | O=C(/C=C/c1cccc(Cl)c1)c1ccc(-n2cc(CN3CCN(c4cc5c(cc4F)c(=O)c(C(=O)O)cn5C4CC4)CC3)nn2)cc1 [Compound 4b, (E)-7-(4-((1–(4-(3-(3-chlorophenyl)acryloyl)phenyl)-1H-1,2,3-triazol-4-yl)methyl)piperazin-1-yl)-1-cyclopropyl-6-fluoro-4-oxo-1,4-dihydroquinoline-3-carboxylic acid] | 95.8 | 94.5 | 84.7 | 34.3 | 94.2 | 89.2 | 14.1 | 85.4 | 37.6 | 71.6 | 51.8 | 82.1 | 64.8 | 75.3 | 59.3 | 79.3 | 70.8 | 42.7 | 53.9 | 67.7 | activity at 10 µM (ACHN): 77.7%; activity at 10 µM (HCT-15): 71.7%; activity at 10 µM (UACC-257): 87.7%; activity at 10 µM (MDA-MB-435): 74%; activity at 10 µM (PC-3): 74%; activity at 10 µM (NCI-H522): 83.9%; activity at 10 µM (HS 578T): 73.7%; activity at 10 µM (SK-MEL-2): 93%; activity at 10 µM (LOX IMVI): 36.9%; activity at 10 µM (OVCAR-3): 57.3%; activity at 10 µM (UACC-62): 61.2%; activity at 10 µM (SF-268): 56.4%; activity at 10 µM (BT-549): 90.4%; IC50 (HCT116): 4.81 ± 1.21 µM; IC50 (Caco-2): 24.4 ± 3.07 µM; IC50 (HT-29): 42.9 ± 5.14 µM
3 | O=C(/C=C/c1ccc(Cl)cc1)c1ccc(-n2cc(CN3CCN(c4cc5c(cc4F)c(=O)c(C(=O)O)cn5C4CC4)CC3)nn2)cc1 [Compound 4c, (E)-7-(4-((1-(4-(3-(4-chlorophenyl)acryloyl)phenyl)-1H-1,2,3-triazol-4-yl)methyl)piperazin-1-yl)-1-cyclopropyl-6-fluoro-4-oxo-1,4-dihydroquinoline-3-carboxylic acid] | 88.2 | 91.2 | 92.2 | 42.1 | 87 | 72.3 | 24.1 | 83.7 | 58.2 | 88.9 | 84 | 73 | 66 | 92.9 | 88.3 | 79.6 | 58.3 | 62 | 54.2 | 79.6 | activity at 10 µM (ACHN): 93.5%; activity at 10 µM (HCT-15): 91.6%; activity at 10 µM (UACC-257): 91%; activity at 10 µM (MDA-MB-435): 79.5%; activity at 10 µM (PC-3): 79.3%; activity at 10 µM (NCI-H522): 80.1%; activity at 10 µM (HS 578T): 67.4%; activity at 10 µM (SK-MEL-2): 96.8%; activity at 10 µM (LOX IMVI): 36.2%; activity at 10 µM (OVCAR-3): 91.5%; activity at 10 µM (UACC-62): 73.8%; activity at 10 µM (SF-268): 70.4%; activity at 10 µM (BT-549): 76.7%; IC50 (HCT116): 6.45 ± 1.84 µM; IC50 (Caco-2): 11.7 ± 2.95 µM; IC50 (HT-29): 15.3 ± 1.54 µM
4 | COc1cc(/C=C/C(=O)c2ccc(-n3cc(CN4CCN(c5cc6c(cc5F)c(=O)c(C(=O)O)cn6C5CC5)CC4)nn3)cc2)cc(OC)c1OC [Compound 4j, (E)-1-cyclopropyl-6-fluoro-4-oxo-7–(4-((1–(4-(3-(3,4,5-trimethoxyphenyl)acryloyl)phenyl)-1H-1,2,3-triazol-4-yl)methyl)piperazin-1-yl)-1,4-dihydroquinoline-3-carboxylic acid] | 34.6 | 57.5 | 72.3 | 10.6 | 82 | 65.5 | -12.4 | 9.41 | 16.1 | 15.7 | -24.8 | 32.4 | -7.19 | 28.1 | -39.7 | 81.6 | 4.51 | 39.7 | 43.6 | 38.7 | activity at 10 µM (HCT-15): 33.8%; activity at 10 µM (UACC-257): 62%; activity at 10 µM (MDA-MB-435): 5.4%; activity at 10 µM (PC-3): 9.95%; activity at 10 µM (NCI-H522): 49.5%; activity at 10 µM (HS 578T): 21.5%; activity at 10 µM (SK-MEL-2): 97.4%; activity at 10 µM (LOX IMVI): -1.51%; activity at 10 µM (OVCAR-3): -16.1%; activity at 10 µM (UACC-62): 54.1%; activity at 10 µM (SF-268): 59.5%; activity at 10 µM (BT-549): 51%; IC50 (HCT116): 2.53 ± 0.31 µM; IC50 (Caco-2): 7.14 ± 2.48 µM; IC50 (HT-29): 13.2 ± 2.4 µM
